Reference: article PMC8398472, “Anticancer Diiron Vinyliminium Complexes: A Structure–Activity Relationship Study” (Pharmaceutics, 2021)
“Also recorded” adds a separate entry of the source.

Columns and labels:
[1] = system: human ovarian carcinoma cisplatin-sensitive A2780; experiment: Cytotoxicity, WST-1 cell viability assay, A2780; type: cell-based; conditions: for IC50: 72 h exposure; for Selectivity index (S.I.): ratio between IC50 for Balb/3T3 and IC50 for A2780
Method: (§1) In vitro cytotoxicity investigations were carried out by using human ovarian carcinoma cisplatin-sensitive A2780 (ECACC93112519), human ovarian carcinoma cisplatin-resistant A2780cisR (ECACC 93112517) and mouse embryo fibroblasts Balb/3T3 clone A31 (ATCC CCL-163) cell lines. A2780 and A2780cisR were purchased from the European Collection of Authenticated Cell Cultures (ECACC), and Balb/3T3 clone A31 cell line from the American Type Culture Collection (ATCC).
(§2) A2780 and A2780cisR cells were routinely cultured in RPMI 1640 (Merck) containing 2 mM of L-glutamine (Merck), 1% of penicillin/streptomycin solution (Merck—10 000 U mL^−1: 10 mg mL^−1), 10% of fetal bovine serum (Merck—FBS) and antimycotic (InvivoGen, USA), and Balb/3T3 clone A31 in Dulbecco’s modified Eagle medium (Merck—DMEM) supplemented with 4 mM of L-glutamine, 1% of penicillin/streptomycin solution, 10% of calf serum (Merck) and antimycotic. […] The cultures were maintained at 37 °C and in a 5% CO2-enriched atmosphere.
(§3) A2780, A2780cisR and Balb/3T3 clone A31 cells were seeded in 96-well tissue culture polystyrene plates at a concentration of 3 × 10^3, 6 × 10^3 and 1 × 10^3 cells per well, respectively. After overnight incubation, the cells were treated with different concentrations (0–100 µM) of the selected compounds for 72 h at 37 °C in a 5% atmosphere of CO2. Stock solutions of compounds were prepared in DMSO and sequentially diluted in medium (final DMSO concentration of 0.5%). […] At the end of the incubation time, cell viability was assessed by means of WST-1 tetrazolium salt reagent (Roche). Briefly, cells were incubated for 4 h with the tetrazolium salt reagent diluted 1:10, at 37 °C and 5% CO2. Measurements of formazan dye absorbance, which directly correlates with the number of viable cells, were carried out with a micro-plate reader (Biorad) at 450 nm, using 655 nm as reference wavelength. The 50% inhibitory concentration (IC50) refers to compound concentration at which 50% of cell death is observed with respect to the control. For each tested compound, assay was performed on triplicate. The concentration effect curves were generated by nonlinear regression curves (GraphPad Prism Software, 2021) and the data reported as mean ± standard deviation.

[2] = Octanol–water partition coefficient (shake-flask, UV–Vis); type: physicochemical; conditions: 21 °C
Method: • (c) Octanol–water partition coefficients (Log Pow). Partition coefficients (Pow; IUPAC: KD partition constant), defined as Pow = corg/caq, where corg and caq are molar concentrations of the selected compound in the organic and aqueous phase, respectively, were determined by the shake-flask method and UV–Vis measurements. Deionized water and 1-octanol were vigorously stirred for 24 h to enable saturation of both phases, then separated by centrifugation. A stock solution of the selected diiron compound (ca. 2 mg; 2a–c, 3b, 4a–c, 5a, 5c, 6b,c, 7) was prepared by first adding acetone (50 μL, to help solubilization), followed by water-saturated octanol (2.5 mL). The solution was diluted with water-saturated octanol (ca. 1:3 v/v ratio, cFe2 ≈ 10^−4 M, so that 1.5 ≤ A ≤ 2.0 at λmax) and the UV–Vis spectrum was recorded (A^0org). An aliquot of the solution (Vorg = 1.2 mL) was transferred into a test tube and octanol-saturated water (Vorg = Vaq = 1.2 mL) was added. The mixture was vigorously stirred for 15 min at 21 °C and then centrifuged (5000 rpm, 10 min). The UV–Vis spectrum of the organic phase was recorded (A^forg) and the partition coefficient was calculated as Pow = A^forg/(A^0org − A^forg), where A^0org and A^forg are the absorbance in the organic phase before and after partition with the aqueous phase, respectively. An inverse procedure was followed for 3a, 3c, 5b and 6a, starting from a solution of the compound in octanol-saturated water. The partition coefficient was calculated as Pow = (A^0aq − A^faq)/A^faq where A^0aq and A^faq are the absorbance in the aqueous phase before and after partition with the organic phase, respectively. The wavelength of the maximum absorption of each compound (ca. 300 nm) was used for UV–Vis quantitation. The procedure was repeated three times for each sample (from the same stock solution); results are given as mean ± standard deviation.

[3] = system: A2780 cells; experiment: Intracellular ROS production, DCFH-DA assay; type: cell-based, human; conditions: 20 μM, up to 24 h, DCFH-DA fluorescence
Method: The intracellular production of reactive oxygen species (ROS) upon treatment of the compounds 3b, 4a, 4c, 5b and 6c was measured by using the DCFH-DA (2′,7′-dichlorodihydrofluorescein diacetate, Merck) assay, based on cellular uptake of the non-fluorescent diacetate following deacetylation by esterases (2′,7′-dichlorodihydrofluorescein, DCFH) and oxidation to the fluorescent dichlorofluorescein (2′,7′-dichlorofluorescein, DCF). A2780 cells were seeded at concentration of 4 × 10^4 cells/well/90 µL of complete growth medium into 96-well plates. After overnight incubation, the cells were treated following manufacturer protocol. 100 µL of a solution containing the fluorogenic probe were added to the culture medium and, after 1 h of incubation with 5% CO2 at 37 °C, the cells were exposed to a final concentration of 20 µM of the tested complexes; H2O2 100 µM was used as a positive control. Stock solutions of compounds were prepared as described above; cells incubated with equal amounts of DMSO in supplemented RPMI were used as control. The fluorescence was measured up to 24 h with an excitation wavelength of 485 nm and with a 535 nm emission filter by Multilabel Counter (PerkinElmer). For each tested compound, assay was performed on triplicate. The data were reported as mean ± standard deviation, statistical differences were analyzed using one-way analysis of variance (ANOVA) and a Tukey test was used for post hoc analysis. A p-value < 0.05 is considered statistically significant.

[4] = system: human ovarian carcinoma cisplatin-resistant A2780cisR; experiment: Cytotoxicity, WST-1 cell viability assay, A2780cisR; type: cell-based; conditions: for IC50: 72 h exposure
Method: as §1, §2, §3

Row | Substance | IC50 [1] [µM] | Selectivity index (S.I.) [1] | Log Pow [2] | Intracellular ROS production [3] | IC50 [4] [µM] | Selectivity index vs A2780cisR ([4]; Balb/3T3 compared to A2780cisR)
1 | [Fe2Cp2(CO)(μ-CO){μ-η^1:η^3-C^3(Me)C^2(Me)C^1N(CH2Ph)2}]CF3SO3 [Compound 2c] | 1.91 ± 0.15 | 9 | 0.56 ± 0.08 | – | – | –
2 | [Fe2Cp2(CO)(μ-CO){μ-η^1:η^3-C^3(Me)C^2(Me)C^1NMe(2-naphthyl)}]CF3SO3 [Compound 7] | 2.2 ± 0.2 | 22 | 0.38 ± 0.02 | – | – | –
3 | [Fe2Cp2(CO)(μ-CO){μ-η^1:η^3-C^3(Me)C^2(Me)C^1NMe(4-C6H4OMe)}]CF3SO3 [Compound 6c] | 3.8 ± 0.4 | >26 | −0.21 ± 0.01 | appreciable ROS production | 17 ± 3 | –
4 | [Fe2Cp2(CO)(μ-CO){μ-η^1:η^3-C^3(Me)C^2(Me)C^1NMe(CH2Ph)}]CF3SO3 [Compound 5b] | 5.1 ± 0.3 | >19 | −0.43 ± 0.01 | appreciable ROS production; also recorded: most effective of the series | 12 ± 4 | –
5 | [Fe2Cp2(CO)(μ-CO){μ-η^1:η^3-C^3(Me)C^2(Me)C^1NMe(Cy)}]CF3SO3 [Compound 4c] | 1.8 ± 0.2 | 52 | −0.17 ± 0.01 | appreciable ROS production | 11.4 ± 0.9 | 8
6 | [Fe2Cp2(CO)(μ-CO){μ-η^1:η^3-C^3(Me)C^2HC^1NMe(Cy)}]CF3SO3 [Compound 4a] | 3.3 ± 0.4 | >30 | −0.29 ± 0.03 | appreciable ROS production | 11.6 ± 1.3 | –
7 | [Fe2Cp2(CO)(μ-CO){μ-η^1:η^3-C^3(Ph)C^2HC^1NMe(4-C6H4OMe)}]CF3SO3 [Compound 6b] | 3.8 ± 0.4 | 10 | 0.37 ± 0.04 | – | – | –
8 | [Fe2Cp2(CO)(μ-CO){μ-η^1:η^3-C^3(Ph)C^2HC^1NMe(CH2CH = CH2)}]CF3SO3 [Compound 3b] | 6 ± 0.8 | >16 | −0.09 ± 0.01 | appreciable ROS production | 29 ± 3 | –
